# Data reported in US11718612B2, “Inhibitors of receptor interacting protein kinase I for the treatment of disease” (Board of Regents, The University of Texas System, priority 2019, dated 2023).
# System: U937 cells
# Experiment: Human U937 cellular necroptosis assay
# Format: cell-based
# Details: U-937; U937 cells stimulated with 25 ng/mL human TNFalpha and 25 μM z-VAD-FMK; 22 hr; Cell Titer-Glo viability
# Procedure: Human U937 Cellular Necroptosis Assay
# The human monocytic cell line U937 (CRL-1593.2) may be purchased from ATCC. The cells are routinely maintained in RPMI-1640 Medium (Gibco, Catalog #11875-093) supplemented with 10% heat inactivated fetal bovine serum (Gibco, Catalog #16140-071), 100 units/mL penicillin and 100 μg/mL streptomycin (Gibco, Catalog #15140-122), in a humidified incubator (37° C., 5% CO2). For the assay, cells are resuspended in RPMI-1640 phenol red free Media (Gibco, Catalog #11835-030) supplemented with 10% fetal bovine serum (Sigma, Catalog #F2442), 100 units/mL penicillin and 100 ug/mL streptomycin. […] Stock solutions of the test compounds are prepared in 100% DMSO (Sigma, Catalog #D2650) and serially diluted 1:3 using 100% DMSO. Compounds are additionally diluted 1:40 in assay medium, and 10 μL/well was transferred to the plate. Following the compound addition, the plate is incubated at 37° C. and 5% CO2 for 22 hr. After 22 hr, viability is assessed with the addition of 20 μL of Cell Titer-Glo 2.0 (Promega, Catalog #G9243). The tissue culture plate is shaken on an orbital shaker at 300 RPM for 15 minutes at room temperature in the dark. Luminescence is measured using a PerkinElmer Envision™ plate reader. IC50 values are calculated using a four-parameter logistic curve fit using Genedata Screener software.
row,Compound,IC50 [nM]
1,"C[C@H](c1cccc(F)c1F)n1nc2c(c1Cl)CCN(c1cccc(Cl)c1F)C2=O (single isomer, unassigned) [Example 55a]",> 10000
2,"C[C@@H](c1cccc(F)c1F)n1nc2c(c1Cl)CCN(c1cccc(Cl)c1F)C2=O (single isomer, unassigned) [Example 55b]",6390
3,"C[C@@H](c1cccc(C#N)c1)n1cnc(C(=O)Nc2cccc(Cl)c2F)n1 (single isomer, unassigned) [Example 56b]",> 10000
4,"O=C1c2nn(Cc3cccc(F)c3F)c(Cl)c2CCN1c1cccc(Cl)c1F [Example 1, 3-chloro-6-(3-chloro-2-fluoro-phenyl)-2-[(2,3-difluorophenyl)methyl]-4,5-dihydropyrazolo[3,4-c]pyridin-7-one]",34.2
5,"CC(c1cccc(F)c1F)n1nc2c(c1Cl)CCN(c1cccc(Cl)c1F)C2=O (stereo not shown) [Example 55, 3-chloro-6-(3-chloro-2-fluorophenyl)-2-(1-(2,3-difluorophenyl)ethyl)-2,4,5,6-tetrahydro-7H-pyrazolo[3,4-c]pyridin-7-one]",> 10000
6,"CC(c1cccc(C#N)c1)n1cnc(C(=O)Nc2cccc(Cl)c2F)n1 (stereo not shown) [Example 56, N-(3-chloro-2-fluorophenyl)-1-(1-(3-cyanophenyl)ethyl)-1H-1,2,4-triazole-3-carboxamide]",1510
7,"N#Cc1cccc(Cn2nc3c(c2Cl)CCN(c2cccc(Cl)c2F)C3=O)c1 [Example 58, 3-((3-Chloro-6-(3-chloro-2-fluorophenyl)-7-oxo-4,5,6,7-tetrahydro-2H-pyrazolo[3,4-c]pyridin-2-yl)methyl)benzonitrile]",95.9
8,"N#Cc1cccc(Cn2cc3c(n2)C(=O)N(c2cccc(Cl)c2F)CC3)c1 [Example 59, 3-((6-(3-chloro-2-fluorophenyl)-7-oxo-4,5,6,7-tetrahydro-2H-pyrazolo[3,4-c]pyridin-2-yl)methyl)benzonitrile]",811
9,"Nc1c2c(nn1Cc1ccccc1)C(=O)N(c1cccc(Cl)c1F)CC2 [Example 60, 3-amino-2-benzyl-6-(3-chloro-2-fluorophenyl)-2,4,5,6-tetrahydro-7H-pyrazolo[3,4-c]pyridin-7-one]",1260
10,"O=C1c2nn(Cc3ccccc3)c(Br)c2CCN1c1cccc(Cl)c1F [Example 61, 2-benzyl-3-bromo-6-(3-chloro-2-fluorophenyl)-2,4,5,6-tetrahydro-7H-pyrazolo[3,4-c]pyridin-7-one]",44.6
11,"O=C1c2nn(Cc3cnccn3)c(Cl)c2CCN1c1cccc(Cl)c1F [Example 62, 3-chloro-6-(3-chloro-2-fluorophenyl)-2-(pyrazin-2-yl-methyl)-2,4,5,6-tetrahydro-7H-pyrazolo[3,4-c]pyridin-7-one]",53.7
12,"O=C1c2nn(Cc3ncccc3F)c(Cl)c2CCN1c1cccc(Cl)c1F [Example 63, 3-chloro-6-(3-chloro-2-fluorophenyl)-2-((3-fluoropyridin-2-yl)methyl)-2,4,5,6-tetrahydro-7H-pyrazolo[3,4-c]pyridin-7-one]",64.1
13,"O=C1c2nn(Cc3ncccc3Cl)c(Cl)c2CCN1c1cccc(Cl)c1F [Example 64, 3-chloro-6-(3-chloro-2-fluorophenyl)-2-((3-chloropyridin-2-yl)methyl)-2,4,5,6-tetrahydro-7H-pyrazolo[3,4-c]pyridin-7-one]",130
14,"Cc1ccc(Cn2nc3c(c2Cl)CCN(c2cccc(Cl)c2F)C3=O)cc1 [Example 65, 3-chloro-6-(3-chloro-2-fluorophenyl)-2-(4-methylbenzyl)-2,4,5,6-tetrahydro-7H-pyrazolo[3,4-c]pyridin-7-one]",207
15,"O=C1c2nn(Cc3ccc(F)cc3)c(Cl)c2CCN1c1cccc(Cl)c1F [Example 66, 3-chloro-6-(3-chloro-2-fluorophenyl)-2-(4-fluorobenzyl)-2,4,5,6-tetrahydro-7H-pyrazolo[3,4-c]pyridin-7-one]",291
16,"Cc1cccc(Cn2nc3c(c2Cl)CCN(c2cccc(Cl)c2F)C3=O)c1 [Example 67, 3-chloro-6-(3-chloro-2-fluorophenyl)-2-(3-methylbenzyl)-2,4,5,6-tetrahydro-7H-pyrazolo[3,4-c]pyridin-7-one]",444
